The results in this text go back to the supplement of paper PMC11208160.

The nature of this data set: recombinant barcode read abundance after kanamycin selection (control-corrected) (log10(CPM+1)); higher = more efficient recombination; sequences stand for … in AGTGCAGAGAAAATCGGCCAGTTTTCTCTGCCTGCAGTCCGCATGCCGT…ATTTATGCAGCGGACTGCCTTTCTCCCAAAGTGATAAACCGGACAGTATCATGGACCGGTTTTCCCGGTAATCCGTATTTGCAAGGTTGGTTTCACT; site = the 11-nt target. The procedure:
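Same pooled E. coli target screen (IS621 bridge recombinase, kanamycin selection, control-corrected CPM, mean of 2 biological replicates). Here the two core-binding nucleotides of the LTG and RTG of the bridge RNA target-binding loop are mutated. Target and donor CT cores are held constant, and the other 9 guide positions match the target. The target is read from the library oligo sequence. Molecule = full bridge RNA written as DNA: nt 1-80 from the library oligo, rest WT scaffold.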
“AGGAGGTGGTGGGTTCTAACCTGTTGCCTCC [AGGAGGTCTAG_LTGcore_GG_RTGcore_GG] (site AGGAGGTCTAG) (LTG core: GG, RTG core: GG)”: the “recombinant barcode read abundance (log10)” value amounted to 0.0671.
On to “AGGAGGTGTTGGGTTCTAACCTGTTGCCTAC [AGGAGGTCTAG_LTGcore_GT_RTGcore_GT] (site AGGAGGTCTAG) (LTG core: GT, RTG core: GT)”, for which the “recombinant barcode read abundance (log10)” value worked out at 0.0506.
With “AGGAGGTTGTGGGTTCTAACCTGTTGCCTAG [AGGAGGTCTAG_LTGcore_TG_RTGcore_CT] (site AGGAGGTCTAG) (LTG core: TG, RTG core: CT)” the figure was 0.42; with “AGGAGGTTGTGGGTTCTAACCTGTTGCCTCA [AGGAGGTCTAG_LTGcore_TG_RTGcore_TG] (site AGGAGGTCTAG) (LTG core: TG, RTG core: TG)”, 0.0756.
In the case of “AGGCCTCACTGGGTTCTAACCTGTTGCCTGT [AGGCCTCCTAG_LTGcore_AC_RTGcore_AC] (site AGGCCTCCTAG) (LTG core: AC, RTG core: AC)”, the “recombinant barcode read abundance (log10)” value came out at 0.113.
With “AGGCCTCAGTGGGTTCTAACCTGTTGCCTAG [AGGCCTCCTAG_LTGcore_AG_RTGcore_CT] (site AGGCCTCCTAG) (LTG core: AG, RTG core: CT)”, the “recombinant barcode read abundance (log10)” value is 0.0227.
The value for “AGGCCTCATTGGGTTCTAACCTGTTGCCTAG [AGGCCTCCTAG_LTGcore_AT_RTGcore_CT] (site AGGCCTCCTAG) (LTG core: AT, RTG core: CT)” was 0.254.
With “AGGCCTCCCTGGGTTCTAACCTGTTGCCTGG [AGGCCTCCTAG_LTGcore_CC_RTGcore_CC] (site AGGCCTCCTAG) (LTG core: CC, RTG core: CC)” the figure was 0.146; with “AGGCCTCCTTGGGTTCTAACCTGTTGCCTAA [AGGCCTCCTAG_LTGcore_CT_RTGcore_TT] (site AGGCCTCCTAG) (LTG core: CT, RTG core: TT)”, 0.109; with “AGGCCTCCTTGGGTTCTAACCTGTTGCCTAC [AGGCCTCCTAG_LTGcore_CT_RTGcore_GT] (site AGGCCTCCTAG) (LTG core: CT, RTG core: GT)”, 1.06.
Turning to “AGGCCTCCTTGGGTTCTAACCTGTTGCCTCC [AGGCCTCCTAG_LTGcore_CT_RTGcore_GG] (site AGGCCTCCTAG) (LTG core: CT, RTG core: GG)”, the “recombinant barcode read abundance (log10)” value worked out at 0.102.
With “AGGCCTCCTTGGGTTCTAACCTGTTGCCTGA [AGGCCTCCTAG_LTGcore_CT_RTGcore_TC] (site AGGCCTCCTAG) (LTG core: CT, RTG core: TC)”, the “recombinant barcode read abundance (log10)” value is 0.578.
The value for “AGGCCTCCTTGGGTTCTAACCTGTTGCCTGT [AGGCCTCCTAG_LTGcore_CT_RTGcore_AC] (site AGGCCTCCTAG) (LTG core: CT, RTG core: AC)” was 0.0115; that for “AGGCCTCGATGGGTTCTAACCTGTTGCCTTC [AGGCCTCCTAG_LTGcore_GA_RTGcore_GA] (site AGGCCTCCTAG) (LTG core: GA, RTG core: GA)” was 0.206; that for “AGGCCTCGTTGGGTTCTAACCTGTTGCCTAC [AGGCCTCCTAG_LTGcore_GT_RTGcore_GT] (site AGGCCTCCTAG) (LTG core: GT, RTG core: GT)” was 0.0637.
With “AGGCGGGAATGGGTTCTAACCTGTTGCGGAG [AGGCGGGCTCC_LTGcore_AA_RTGcore_CT] (site AGGCGGGCTCC) (LTG core: AA, RTG core: CT)” the figure was 0.668; with “AGGCGGGAGTGGGTTCTAACCTGTTGCGGAG [AGGCGGGCTCC_LTGcore_AG_RTGcore_CT] (site AGGCGGGCTCC) (LTG core: AG, RTG core: CT)”, 0.325; with “AGGCGGGCTTGGGTTCTAACCTGTTGCGGCC [AGGCGGGCTCC_LTGcore_CT_RTGcore_GG] (site AGGCGGGCTCC) (LTG core: CT, RTG core: GG)”, 0.367.
The value for “AGGCGGGCTTGGGTTCTAACCTGTTGCGGGC [AGGCGGGCTCC_LTGcore_CT_RTGcore_GC] (site AGGCGGGCTCC) (LTG core: CT, RTG core: GC)” was 0.249; that for “AGGCGGGCTTGGGTTCTAACCTGTTGCGGGT [AGGCGGGCTCC_LTGcore_CT_RTGcore_AC] (site AGGCGGGCTCC) (LTG core: CT, RTG core: AC)” was 0.945.
In the case of “AGGCGGGCTTGGGTTCTAACCTGTTGCGGTT [AGGCGGGCTCC_LTGcore_CT_RTGcore_AA] (site AGGCGGGCTCC) (LTG core: CT, RTG core: AA)”, the “recombinant barcode read abundance (log10)” value was found to be 0.0746.
In the case of “AGGCGGGGCTGGGTTCTAACCTGTTGCGGAG [AGGCGGGCTCC_LTGcore_GC_RTGcore_CT] (site AGGCGGGCTCC) (LTG core: GC, RTG core: CT)”, the “recombinant barcode read abundance (log10)” value is 0.207.
With “AGGCGGGGTTGGGTTCTAACCTGTTGCGGAC [AGGCGGGCTCC_LTGcore_GT_RTGcore_GT] (site AGGCGGGCTCC) (LTG core: GT, RTG core: GT)” the figure was 0.0704.
Turning to “AGGCGGGTCTGGGTTCTAACCTGTTGCGGGA [AGGCGGGCTCC_LTGcore_TC_RTGcore_TC] (site AGGCGGGCTCC) (LTG core: TC, RTG core: TC)”, the “recombinant barcode read abundance (log10)” value amounted to 0.156.
With “AGGCGGTATTGGGTTCTAACCTGTTGCTTAG [AGGCGGTCTAA_LTGcore_AT_RTGcore_CT] (site AGGCGGTCTAA) (LTG core: AT, RTG core: CT)” the figure was 0.127; with “AGGCGGTCATGGGTTCTAACCTGTTGCTTTG [AGGCGGTCTAA_LTGcore_CA_RTGcore_CA] (site AGGCGGTCTAA) (LTG core: CA, RTG core: CA)”, 0.128; with “AGGCGGTCTTGGGTTCTAACCTGTTGCTTAC [AGGCGGTCTAA_LTGcore_CT_RTGcore_GT] (site AGGCGGTCTAA) (LTG core: CT, RTG core: GT)”, 1.26.
For the sequence “AGGCGGTTTTGGGTTCTAACCTGTTGCTTAA [AGGCGGTCTAA_LTGcore_TT_RTGcore_TT] (site AGGCGGTCTAA) (LTG core: TT, RTG core: TT)”, the “recombinant barcode read abundance (log10)” value was 0.0993.
With “AGTCTTAATTGGGTTCTAACCTGTTGCCAAG [AGTCTTACTTG_LTGcore_AT_RTGcore_CT] (site AGTCTTACTTG) (LTG core: AT, RTG core: CT)” the figure was 0.295.
With “AGTCTTACATGGGTTCTAACCTGTTGCCAAG [AGTCTTACTTG_LTGcore_CA_RTGcore_CT] (site AGTCTTACTTG) (LTG core: CA, RTG core: CT)” the figure was 0.033.
The value for “AGTCTTACGTGGGTTCTAACCTGTTGCCAAG [AGTCTTACTTG_LTGcore_CG_RTGcore_CT] (site AGTCTTACTTG) (LTG core: CG, RTG core: CT)” was 0.0383; that for “AGTCTTACTTGGGTTCTAACCTGTTGCCAAA [AGTCTTACTTG_LTGcore_CT_RTGcore_TT] (site AGTCTTACTTG) (LTG core: CT, RTG core: TT)” was 0.0465.
In the case of “AGTCTTACTTGGGTTCTAACCTGTTGCCACG [AGTCTTACTTG_LTGcore_CT_RTGcore_CG] (site AGTCTTACTTG) (LTG core: CT, RTG core: CG)”, the “recombinant barcode read abundance (log10)” value came to 0.0125.
As to “AGTCTTACTTGGGTTCTAACCTGTTGCCAGC [AGTCTTACTTG_LTGcore_CT_RTGcore_GC] (site AGTCTTACTTG) (LTG core: CT, RTG core: GC)”, the “recombinant barcode read abundance (log10)” value was 0.13.
With “AGTCTTACTTGGGTTCTAACCTGTTGCCAGG [AGTCTTACTTG_LTGcore_CT_RTGcore_CC] (site AGTCTTACTTG) (LTG core: CT, RTG core: CC)” the figure was 0.196; with “AGTCTTATCTGGGTTCTAACCTGTTGCCAGA [AGTCTTACTTG_LTGcore_TC_RTGcore_TC] (site AGTCTTACTTG) (LTG core: TC, RTG core: TC)”, 0.0509.
As for “ATGCTTTACTGGGTTCTAACCTGTTGCCTAG [ATGCTTTCTAG_LTGcore_AC_RTGcore_CT] (site ATGCTTTCTAG) (LTG core: AC, RTG core: CT)”, the “recombinant barcode read abundance (log10)” value was found to be 0.0722.
The value for “ATGCTTTCATGGGTTCTAACCTGTTGCCTTG [ATGCTTTCTAG_LTGcore_CA_RTGcore_CA] (site ATGCTTTCTAG) (LTG core: CA, RTG core: CA)” was 0.1.
The value for “ATGCTTTCGTGGGTTCTAACCTGTTGCCTCG [ATGCTTTCTAG_LTGcore_CG_RTGcore_CG] (site ATGCTTTCTAG) (LTG core: CG, RTG core: CG)” was 0.295; that for “ATGCTTTCTTGGGTTCTAACCTGTTGCCTAT [ATGCTTTCTAG_LTGcore_CT_RTGcore_AT] (site ATGCTTTCTAG) (LTG core: CT, RTG core: AT)” was 0.128.
The value for “ATGCTTTCTTGGGTTCTAACCTGTTGCCTGC [ATGCTTTCTAG_LTGcore_CT_RTGcore_GC] (site ATGCTTTCTAG) (LTG core: CT, RTG core: GC)” was 0.295.
